Measurements from ChEMBL document CHEMBL1133876, “alpha-Ketocarboxylic acid-based inhibitors of protein tyrosine phosphatases” (Bioorg Med Chem Lett, 2001).

Key:
[1] = target: Tyrosine-protein phosphatase YopH (Yersinia enterocolitica) (UniProt P15273); experiment: Inhibitory activity against Yersinia Protein-tyrosine phosphatase YopH
[2] = target: Tyrosine-protein phosphatase YopH (Yersinia enterocolitica) (UniProt P15273); experiment: as above; remark: listed apart in the source

Tyrosine-protein phosphatase YopH (Yersinia enterocolitica), sequence (P15273 whole entry, looked up): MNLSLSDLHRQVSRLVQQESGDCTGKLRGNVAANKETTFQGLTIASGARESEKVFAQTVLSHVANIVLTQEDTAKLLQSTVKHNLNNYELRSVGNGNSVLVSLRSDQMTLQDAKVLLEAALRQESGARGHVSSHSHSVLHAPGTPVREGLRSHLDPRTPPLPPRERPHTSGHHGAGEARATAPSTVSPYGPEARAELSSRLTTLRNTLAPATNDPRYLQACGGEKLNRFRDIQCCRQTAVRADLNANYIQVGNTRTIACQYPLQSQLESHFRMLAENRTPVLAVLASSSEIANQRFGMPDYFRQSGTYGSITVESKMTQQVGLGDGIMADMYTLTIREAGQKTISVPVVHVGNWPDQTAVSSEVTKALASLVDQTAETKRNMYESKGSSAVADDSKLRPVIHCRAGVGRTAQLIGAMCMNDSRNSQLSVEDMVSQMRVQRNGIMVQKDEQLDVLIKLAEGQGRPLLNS

SMILES | IC50 [1] | Ki [2]
O=C(O)[C@H](O)c1ccccc1 | 5.5 mM | 
O=C(O)C(=O)c1cccs1 | 0.95 mM | 
O=C(O)C(=O)c1ccco1 |  | 79 µM
O=C(O)C(=O)c1ccccc1C(=O)O | 1.5 mM | 
COc1ccc(C(=O)C(=O)O)cc1OC | 1.7 mM | 
O=C(O)C(O)c1ccc2ccccc2c1 (stereo not drawn) | 3.3 mM | 
COc1ccc(C(=O)C(=O)O)cc1 | 0.15 mM | 
O=C(O)C(=O)c1c[nH]c2ccccc12 | 0.39 mM | 
O=C(O)C(O)c1ccco1 (stereo not drawn) | 0.027 mM | 
COc1ccc(C(O)C(=O)O)cc1 (stereo not drawn) | 5.7 mM | 
COC(=O)c1ccc(C(=O)C(=O)O)cc1 | 2.3 mM | 
O=C(O)[C@@H](O)c1ccccc1 | 4.9 mM | 
O=C(O)C(=O)c1c(F)c(F)c(F)c(F)c1F | 0.79 mM | 
O=P(O)(O)C(F)(F)c1ccc2ccccc2c1 |  | 179 µM
O=C(O)C(=O)c1ccc([N+](=O)[O-])cc1 | 2.7 mM | 
O=C(O)C(=O)c1ccc2ccccc2c1 | 0.19 mM | 
O=C(O)Cc1ccc2ccccc2c1 | 3.5 mM | 
O=C(O)C(=O)c1ccccc1 [BENZOYL FORMIC ACID] | 2.7 mM | 
